Experimental data: patent US20230295234A1, “ANTIMICROBIAL PEPTIDOMIMETICS” (SPEXIS AG, priority 2020, published 2023)
Peptide text beside a SMILES is read from it.

Legend:
[1] = tested on: Klebsiella pneumoniae SSI3010; conditions: SSI3010
Procedure, shortened: (§1)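 First, bacterial colonies are suspended in saline and adjusted to 0.5 McFarland. Next, the suspension is diluted into cation-adjusted Mueller-Hinton II broth (approx. 5×10^5 CFU/mL). Finally, it is added to two-fold serially diluted peptide, with polysorbate 80 at 0.002% final.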

[2] = tested on: Escherichia coli ATCC 25922; conditions: ATCC 25922
Procedure, shortened: as §1

[3] = tested on: Escherichia coli MCR-1 Af 45; conditions: MCR-1 Af 45
Procedure, shortened: as §1

[4] = tested on: human red blood cells (hRBC); assay: Hemolysis of human red blood cells; type: cell-based; conditions: red cells of human, 1 h
Procedure, shortened: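 Percent hemolysis is OD540 of peptide-treated supernatant relative to water-lysed cells. Each peptide was tested at 200 μg/mL against 20% (v/v) washed human erythrocytes. Incubation was 1 h at 37 °C, 300 rpm.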

SMILES	Klebsiella pneumoniae SSI3010 MIC [1]	Escherichia coli ATCC 25922 MIC [2]	Escherichia coli MCR-1 Af 45 MIC [3]	Hemolysis at 0.2 g/L [4]
CCCC[C@H](NC(=O)[C@H](CCCNC(=N)N)NC(=O)[C@H](CCN)NC(=O)[C@@H]1CSSC[C@H](NC(=O)[C@H](Cc2ccc(O)cc2)NC(=O)[C@@H](NC(=O)[C@@H](NC(=O)[C@@H]2CCCN2C(=O)[C@@H](NC(=O)[C@@H](CCCCN)NC(=O)[C@H](CCCCN)NC(=O)[C@H](N)C(C)C)C(C)C)[C@@H](C)CC)[C@@H](C)CC)C(=O)N[C@@H](CC(N)=O)C(=O)N[C@@H](CCCNC(=N)N)C(=O)N[C@@H](CCCNC(=N)N)C(=O)N[C@@H]([C@@H](C)O)C(=O)N[C@H](CCN)C(=O)N[C@@H](CCCCN)C(=O)N1)C(=O)O [Example 76] (HELM PEPTIDE1{[dV].K.[dK].V.P.I.I.Y.C.N.R.R.T.[NCC[C@@H](N[*:1])C(=O)[*:2]].K.C.[Dab].R.[Nle]}$PEPTIDE1,PEPTIDE1,9:R3-16:R3$$$V2.0)	0.125 µg/mL	0.0625 µg/mL	≤0.03125 µg/mL	0%
CCCC[C@H](NC(=O)[C@H](CCCNC(=N)N)NC(=O)[C@H](CCN)NC(=O)[C@@H]1CSSC[C@H](NC(=O)[C@H](Cc2ccc(O)cc2)NC(=O)[C@H](Cc2c[nH]cn2)NC(=O)[C@@H](NC(=O)[C@@H]2CCCN2C(=O)[C@@H](NC(=O)[C@@H](CCCCN)NC(=O)[C@H](CCCCN)NC(=O)[C@@H](N)CCCCN)C(C)C)[C@@H](C)CC)C(=O)N[C@@H](CC(N)=O)C(=O)N[C@@H](CCCNC(=N)N)C(=O)N[C@@H](CCCNC(=N)N)C(=O)N[C@@H]([C@@H](C)O)C(=O)N[C@H](CCN)C(=O)N[C@@H](CCCCN)C(=O)N1)C(=O)O [Example 77] (HELM PEPTIDE1{K.K.[dK].V.P.I.H.Y.C.N.R.R.T.[NCC[C@@H](N[*:1])C(=O)[*:2]].K.C.[Dab].R.[Nle]}$PEPTIDE1,PEPTIDE1,9:R3-16:R3$$$V2.0)	0.25 µg/mL	0.125 µg/mL	0.0625 µg/mL	0%
CC[C@H](C)[C@H](NC(=O)[C@@H](NC(=O)[C@@H]1CCCN1C(=O)[C@@H](NC(=O)[C@@H]1CCCN1C(=O)[C@H](CCCCN)NC(=O)[C@@H](N)CCCCN)C(C)C)[C@@H](C)CC)C(=O)N[C@@H](Cc1ccc(O)cc1)C(=O)N[C@H]1CSSC[C@@H](C(=O)N[C@@H](CCN)C(=O)N[C@@H](CCCNC(=N)N)C(=O)N[C@@H](CC2CC2)C(=O)O)NC(=O)[C@H](CCCCN)NC(=O)[C@@H](CCN)NC(=O)[C@H]([C@@H](C)O)NC(=O)[C@H](CCN)NC(=O)[C@H](CCCNC(=N)N)NC(=O)[C@H](CC(N)=O)NC1=O [Example 79] (HELM PEPTIDE1{K.K.P.V.P.I.I.Y.C.N.R.[Dab].T.[NCC[C@@H](N[*:1])C(=O)[*:2]].K.C.[Dab].R.[O=C(O)[C@H](CC1CC1)N[*:1]]}$PEPTIDE1,PEPTIDE1,9:R3-16:R3$$$V2.0)	0.125 µg/mL	0.0625 µg/mL	≤0.03125 µg/mL	0%
CC[C@H](C)[C@H](NC(=O)[C@@H](NC(=O)[C@@H]1CCCN1C(=O)[C@@H](NC(=O)[C@@H]1CCCN1C(=O)[C@H](CCCCN)NC(=O)[C@@H](N)CCCCN)C(C)C)[C@@H](C)CC)C(=O)N[C@@H](Cc1ccc(O)cc1)C(=O)N[C@H]1CSSC[C@@H](C(=O)N[C@@H](CCN)C(=O)N[C@@H](CCCNC(=N)N)C(=O)N[C@@H](CC2CCOCC2)C(=O)O)NC(=O)[C@H](CCCCN)NC(=O)[C@@H](CCN)NC(=O)[C@H]([C@@H](C)O)NC(=O)[C@H](CCN)NC(=O)[C@H](CCCNC(=N)N)NC(=O)[C@H](CC(N)=O)NC1=O [Example 80] (HELM PEPTIDE1{K.K.P.V.P.I.I.Y.C.N.R.[Dab].T.[NCC[C@@H](N[*:1])C(=O)[*:2]].K.C.[Dab].R.[O=C(O)[C@H](CC1CCOCC1)N[*:1]]}$PEPTIDE1,PEPTIDE1,9:R3-16:R3$$$V2.0)	0.125 µg/mL	0.0625 µg/mL	0.0625 µg/mL	0%
CC[C@H](C)[C@H](NC(=O)[C@@H](NC(=O)[C@@H]1CCCN1C(=O)[C@@H](NC(=O)[C@@H]1CCCN1C(=O)[C@H](CCCCN)NC(=O)[C@@H](N)CCCCN)C(C)C)[C@@H](C)CC)C(=O)N[C@@H](Cc1ccc(O)cc1)C(=O)N[C@H]1CSSC[C@@H](C(=O)N[C@@H](CCN)C(=O)N[C@@H](CCCNC(=N)N)C(=O)N[C@H](C(=O)O)C2CC2)NC(=O)[C@H](CCCCN)NC(=O)[C@@H](CCN)NC(=O)[C@H]([C@@H](C)O)NC(=O)[C@H](CCN)NC(=O)[C@H](CCCNC(=N)N)NC(=O)[C@H](CC(N)=O)NC1=O [Example 81] (HELM PEPTIDE1{K.K.P.V.P.I.I.Y.C.N.R.[Dab].T.[NCC[C@@H](N[*:1])C(=O)[*:2]].K.C.[Dab].R.[O=C(O)[C@@H](N[*:1])C1CC1]}$PEPTIDE1,PEPTIDE1,9:R3-16:R3$$$V2.0)	0.125 µg/mL	≤0.03125 µg/mL	≤0.03125 µg/mL	0%
CCC(CC)[C@H](NC(=O)[C@H](CCCNC(=N)N)NC(=O)[C@H](CCN)NC(=O)[C@@H]1CSSC[C@H](NC(=O)[C@H](Cc2ccc(O)cc2)NC(=O)[C@@H](NC(=O)[C@@H](NC(=O)[C@@H]2CCCN2C(=O)[C@@H](NC(=O)[C@@H]2CCCN2C(=O)[C@H](CCCCN)NC(=O)[C@@H](N)CCCCN)C(C)C)[C@@H](C)CC)[C@@H](C)CC)C(=O)N[C@@H](CC(N)=O)C(=O)N[C@@H](CCCNC(=N)N)C(=O)N[C@@H](CCN)C(=O)N[C@@H]([C@@H](C)O)C(=O)N[C@H](CCN)C(=O)N[C@@H](CCCCN)C(=O)N1)C(=O)O [Example 82] (HELM PEPTIDE1{K.K.P.V.P.I.I.Y.C.N.R.[Dab].T.[NCC[C@@H](N[*:1])C(=O)[*:2]].K.C.[Dab].R.[CCC(CC)[C@H](N[*:1])C(=O)O]}$PEPTIDE1,PEPTIDE1,9:R3-16:R3$$$V2.0)	0.125 µg/mL	0.0625 µg/mL	0.0625 µg/mL	0%
CC[C@H](C)[C@H](NC(=O)[C@@H](NC(=O)[C@@H]1CCCN1C(=O)[C@@H](NC(=O)[C@@H]1CCCN1C(=O)[C@H](CCCCN)NC(=O)[C@@H](N)CCCCN)C(C)C)[C@@H](C)CC)C(=O)N[C@@H](Cc1ccc(O)cc1)C(=O)N[C@H]1CSSC[C@@H](C(=O)N[C@@H](CCN)C(=O)N[C@@H](CCCNC(=N)N)C(=O)N[C@@H](CC(C)(C)C)C(=O)O)NC(=O)[C@H](CCCCN)NC(=O)[C@@H](CCN)NC(=O)[C@H]([C@@H](C)O)NC(=O)[C@H](CCN)NC(=O)[C@H](CCCNC(=N)N)NC(=O)[C@H](CC(N)=O)NC1=O [Example 83] (HELM PEPTIDE1{K.K.P.V.P.I.I.Y.C.N.R.[Dab].T.[NCC[C@@H](N[*:1])C(=O)[*:2]].K.C.[Dab].R.[CC(C)(C)C[C@H](N[*:1])C(=O)O]}$PEPTIDE1,PEPTIDE1,9:R3-16:R3$$$V2.0)	0.25 µg/mL	0.0625 µg/mL	0.0625 µg/mL	0%
CC[C@H](C)[C@H](NC(=O)[C@@H](NC(=O)[C@@H]1CCCN1C(=O)[C@@H](NC(=O)[C@@H]1CCCN1C(=O)[C@H](CCCCN)NC(=O)[C@@H](N)CCCCN)C(C)C)[C@@H](C)CC)C(=O)N[C@@H](Cc1ccc(O)cc1)C(=O)N[C@H]1CSSC[C@@H](C(=O)N[C@@H](CCN)C(=O)N[C@@H](CCCNC(=N)N)C(=O)N[C@H](C(=O)O)C(C)(C)C)NC(=O)[C@H](CCCCN)NC(=O)[C@@H](CCN)NC(=O)[C@H]([C@@H](C)O)NC(=O)[C@H](CCN)NC(=O)[C@H](CCCNC(=N)N)NC(=O)[C@H](CC(N)=O)NC1=O [Example 84] (HELM PEPTIDE1{K.K.P.V.P.I.I.Y.C.N.R.[Dab].T.[NCC[C@@H](N[*:1])C(=O)[*:2]].K.C.[Dab].R.[CC(C)(C)[C@H](N[*:1])C(=O)O]}$PEPTIDE1,PEPTIDE1,9:R3-16:R3$$$V2.0)	0.125 µg/mL	0.0625 µg/mL	0.0625 µg/mL	0%
CC[C@H](C)[C@H](NC(=O)[C@@H](NC(=O)[C@@H]1CCCN1C(=O)[C@@H](NC(=O)CCNC(=O)[C@H](CCCNC(=N)N)NC(=O)[C@@H](N)CCCCN)C(C)C)[C@@H](C)CC)C(=O)N[C@@H](Cc1ccc(O)cc1)C(=O)N[C@@H]1C(=O)N[C@@H](CC(N)=O)C(=O)N[C@@H](CCCNC(=N)N)C(=O)N[C@@H](CCN)C(=O)N[C@@H]([C@@H](C)O)C(=O)N[C@H](CCN)C(=O)N[C@@H](CCCCN)C(=O)N[C@H](C(=O)N[C@@H](CCN)C(=O)N[C@@H](CCCNC(=N)N)C(=O)N[C@@H](Cc2ccc(O)cc2)C(=O)O)CSSC1(C)C [Example 85, Lys-Arg-betaGly-Val-Pro-Ile-Ile-Tyr-Pen-Asn-Arg-Dab-Thr-^DDab-Lys-Cys-Dab-Arg-Tyr] (HELM PEPTIDE1{K.R.[bAla].V.P.I.I.Y.[Pen].N.R.[Dab].T.[NCC[C@@H](N[*:1])C(=O)[*:2]].K.C.[Dab].R.Y}$PEPTIDE1,PEPTIDE1,9:R3-16:R3$$$V2.0)	0.125 µg/mL	0.0625 µg/mL	0.0625 µg/mL	0%
